Test results from PubChem BioAssay (NCI).
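Five concentrations, 48 hours, 96-well plates. TGI: total growth inhibition.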

Tests used:
Test in all cases: DTP human tumour cell line panel, 48 h
BT-549 breast = system: BT-549 breast
SNB-19 CNS = system: SNB-19 CNS
NCI-H23 lung = system: NCI-H23 lung
NCI-H226 lung = system: NCI-H226 lung
MDA-N = system: MDA-N
TK-10 renal = system: TK-10 renal
OVCAR-5 ovarian = system: OVCAR-5 ovarian
PC-3 prostate = system: PC-3 prostate
SF-268 CNS = system: SF-268 CNS
MALME-3M melanoma = system: MALME-3M melanoma
MOLT-4 leukemia = system: MOLT-4 leukemia
M14 melanoma = system: M14 melanoma
OVCAR-4 ovarian = system: OVCAR-4 ovarian
SF-539 CNS = system: SF-539 CNS
SR leukemia = system: SR leukemia
U251 CNS = system: U251 CNS
HCT-15 colon = system: HCT-15 colon
HS 578T breast = system: HS 578T breast
SF-295 CNS = system: SF-295 CNS
786-0 renal = system: 786-0 renal

Structure (SMILES)	TGI (BT-549 breast)	TGI (SNB-19 CNS)	TGI (NCI-H23 lung)	TGI (NCI-H226 lung)	TGI (MDA-N)	TGI (TK-10 renal)	TGI (OVCAR-5 ovarian)	TGI (PC-3 prostate)	TGI (SF-268 CNS)	TGI (MALME-3M melanoma)	TGI (MOLT-4 leukemia)	TGI (M14 melanoma)	TGI (OVCAR-4 ovarian)	TGI (SF-539 CNS)	TGI (SR leukemia)	TGI (U251 CNS)	TGI (HCT-15 colon)	TGI (HS 578T breast)	TGI (SF-295 CNS)	TGI (786-0 renal)
O=C(c1ccccc1)c1ccc2nc3n(c2c1)C(c1c(F)cccc1F)SC3 (stereo not given)	> 100 µM	> 100 µM	> 61.7 µM	> 79.2 µM	3.43 µM	> 100 µM	> 91.1 µM	> 80.7 µM	> 70.2 µM	46.7 µM	27.6 µM	15.4 µM	> 73.6 µM	> 47.8 µM	9.4 µM	> 63.4 µM	> 59 µM	> 81 µM	13.8 µM	47.8 µM
O=C1NC(=O)C(Cc2ccccc2)(c2cccnc2)N1 (stereo not given)	> 100 µM	> 100 µM	> 100 µM	> 100 µM	> 100 µM	> 100 µM	> 100 µM	> 100 µM	> 100 µM	> 100 µM	> 100 µM	> 100 µM	> 100 µM	> 100 µM	> 100 µM	> 100 µM	> 100 µM	> 100 µM	> 100 µM	> 100 µM
COc1cc2c[n+](C)c3c4cc5c(cc4ccc3c2cc1OC)OCO5	78.4 µM	21.5 µM	3.65 µM	15.3 µM	> 100 µM	> 93.1 µM	4.84 µM	> 100 µM	39.4 µM	37.5 µM	13.5 µM	> 88.1 µM	> 52.4 µM	5.32 µM	22.8 µM	2.13 µM	> 100 µM	> 100 µM	57.7 µM	21.7 µM
CCN(CC)C(=C(C(Cl)=C(Cl)Cl)[N+](=O)[O-])N(CC)CC	> 100 µM	> 100 µM	> 100 µM	> 100 µM	> 100 µM	> 100 µM	> 100 µM	> 100 µM	> 100 µM	91.6 µM	> 100 µM	> 100 µM	> 100 µM	> 100 µM	> 100 µM	> 100 µM	> 100 µM	68.5 µM	> 100 µM	> 100 µM
CSc1nc(C)c2c(n1)SCC2	> 10 µM	> 10 µM	> 10 µM	> 10 µM	> 10 µM	> 10 µM	> 10 µM	> 10 µM	> 10 µM	> 10 µM	> 10 µM	> 10 µM	> 10 µM	> 10 µM	> 10 µM	> 10 µM	> 10 µM	> 10 µM	> 10 µM	> 10 µM
CN1C2CCC1CC(CCOC(c1ccc(F)cc1)c1ccc(F)cc1)C2 (stereo not given)	31.1 µM	41.6 µM	42.1 µM	29.1 µM	37.5 µM	28.8 µM	36.7 µM	29.6 µM	29.2 µM	29.3 µM	44 µM	32.5 µM	38.8 µM	29.9 µM	38.2 µM	28.1 µM	32.3 µM	44.5 µM	30.8 µM	30.7 µM
COc1ccc2cc(CNCCCCCCCCCCCCNCc3ccc4cc(OC)ccc4c3)ccc2c1	33 µM	31.3 µM	34.3 µM	32.5 µM	> 54.4 µM	32.8 µM	> 57.1 µM	> 55.4 µM	27.2 µM	31.8 µM	> 58.9 µM	35.9 µM	41.3 µM	31.8 µM	> 21.5 µM	43.8 µM	50.9 µM	31.7 µM	42.2 µM	30.1 µM
CNc1c2cccc(C)c2nc2c(C(=O)NCCN(C)C)cccc12	2.8 µM	0.876 µM	0.286 µM	0.847 µM	0.328 µM	0.617 µM	1.1 µM	0.88 µM	0.318 µM	0.692 µM	0.306 µM	0.887 µM	0.114 µM	0.245 µM	0.469 µM	0.651 µM	0.634 µM	0.497 µM	0.952 µM	1.47 µM
CCOC(=O)C1=CN/C(=C(/C)C(=O)OC)SC1C(=O)OCC (stereo not given)	> 100 µM	> 100 µM	> 100 µM	> 100 µM	> 100 µM	> 100 µM	> 100 µM	> 100 µM	> 100 µM	> 100 µM	> 100 µM	> 100 µM	> 100 µM	> 100 µM	> 100 µM	> 100 µM	> 100 µM	> 100 µM	> 100 µM	> 100 µM
COC(=O)c1c(O)ccc2c1c1c(n2Cc2ccccc2)C(=O)c2ccccc2C1=O	31.6 µM	28.7 µM	31.6 µM	39.6 µM	56.3 µM	31.8 µM	39.2 µM	29.4 µM	33 µM	54.7 µM	25.3 µM	37.4 µM	24.3 µM	29.1 µM	50.1 µM	29.2 µM	30.3 µM	43.3 µM	36.3 µM	32.1 µM
CN1CCC2(CC1)SC[C@H]1C(=O)N(c3ccc(Cl)cc3)C(=O)N12	> 100 µM	> 100 µM	> 100 µM	> 100 µM	> 100 µM	> 100 µM	> 100 µM	> 100 µM	> 100 µM	> 100 µM	> 100 µM	> 100 µM	> 100 µM	> 100 µM	> 100 µM	> 100 µM	> 100 µM	> 100 µM	> 100 µM	> 100 µM
CCC(Sc1cc(Cl)c(C)cc1S(=O)(=O)Nc1nc(N)nc(N(C)C)n1)C(=O)O (stereo not given)	> 10 µM	> 10 µM	> 10 µM	> 10 µM	> 10 µM	> 10 µM	> 10 µM	> 10 µM	> 10 µM	> 10 µM	> 10 µM	> 10 µM	> 10 µM	> 10 µM	> 10 µM	> 10 µM	> 10 µM	> 10 µM	> 10 µM	> 10 µM
C=C1C(=O)C23CC1C[C@H](OC(C)=O)[C@H]2C1(C)C(OC(C)=O)C[C@H](O)C(C)(C)[C@H]1C(=O)[C@@H]3OC(C)=O (stereo not given in full)	7.4 µM	34.6 µM	15.2 µM	43.3 µM	10.7 µM	5.82 µM	22.5 µM	24.6 µM	25.3 µM	5.15 µM	4.03 µM	9.5 µM	16.3 µM	6.47 µM	> 24.7 µM	29.3 µM	11 µM	15.3 µM	31.9 µM	9.64 µM
Cc1cc(C)nc(NS(=O)(=O)c2ccc(NNc3c4ccccc4nc4c(C(=O)Nc5ccc(S(=O)(=O)Nc6ncccn6)cc5)cccc34)cc2)n1	> 100 µM	> 100 µM	69.5 µM	53.2 µM	> 100 µM	> 100 µM	52.5 µM	71.3 µM	> 100 µM	60.3 µM	92.9 µM	> 100 µM	89.7 µM	69.4 µM	59 µM	56 µM	> 100 µM	> 100 µM	> 100 µM	> 100 µM
Cc1ccc2nc(CN3CCCC(O)C3)cc(=O)n2c1 (stereo not given)	> 100 µM	> 100 µM	> 100 µM	> 100 µM	> 100 µM	> 100 µM	> 100 µM	> 100 µM	> 100 µM	> 100 µM	> 100 µM	> 100 µM	> 100 µM	> 100 µM	> 100 µM	> 100 µM	> 100 µM	> 100 µM	> 100 µM	> 100 µM
Cc1oc2c(c1C)S(=O)(=O)C(C#N)=C(c1ccccc1)N2	> 100 µM	> 100 µM	> 100 µM	> 100 µM	> 100 µM	> 100 µM	> 100 µM	> 100 µM	> 100 µM	> 100 µM	> 100 µM	> 100 µM	> 100 µM	> 100 µM	> 100 µM	> 100 µM	> 100 µM	> 100 µM	> 100 µM	> 100 µM
CN(C)c1ccc(/C=N\NC(=O)c2ccccc2Nc2ccccc2C(=O)N/N=C/c2ccc(N(C)C)cc2)cc1	> 100 µM	> 100 µM	> 100 µM	> 100 µM	> 100 µM	> 100 µM	> 100 µM	> 100 µM	> 100 µM	98 µM	> 100 µM	95.9 µM	> 100 µM	81.9 µM	> 100 µM	> 100 µM	> 100 µM	> 100 µM	> 100 µM	> 100 µM
O=C1C(=O)c2c(oc(=O)c3ccccc23)-c2ccccc21	> 25 µM	> 25 µM	> 25 µM	> 25 µM	> 25 µM	> 25 µM	> 25 µM	> 25 µM	> 25 µM	> 25 µM	> 25 µM	> 25 µM	20.3 µM	> 25 µM	> 25 µM	> 25 µM	> 25 µM	> 25 µM	> 25 µM	> 25 µM
